Results on ten molecules are retold here after patent US20250059185A1 (Hoffmann-La Roche Inc., priority 2021, published 2025).

Counter-ions that a name gives are not always drawn.

MAGL, sequence (Q99685 whole entry, species assumed): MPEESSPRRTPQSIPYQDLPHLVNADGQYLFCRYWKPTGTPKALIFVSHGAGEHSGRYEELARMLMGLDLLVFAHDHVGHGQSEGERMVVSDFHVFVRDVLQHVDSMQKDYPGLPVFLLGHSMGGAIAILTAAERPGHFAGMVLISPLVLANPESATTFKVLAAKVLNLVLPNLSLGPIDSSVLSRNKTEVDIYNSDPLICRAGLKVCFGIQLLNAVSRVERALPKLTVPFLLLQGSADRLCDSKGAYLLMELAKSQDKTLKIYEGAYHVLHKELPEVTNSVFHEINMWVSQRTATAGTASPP

This experiment concerns the target MAGL (Homo sapiens (Human), UniProt Q99685). Kind of experiment: 2-AG assay (MAGL inhibitory activity, hydrolysis of 2-arachidonoylglycerol followed by mass spectrometry). In kind it is biochemical. The following applies: 50 pM MAGL protein, 15 min pre-incubation, 30 min incubation at RT. The source says: Compounds of formula (II) were profiled for MAGL inhibitory activity by determining the enzymatic activity by following the hydrolysis of the natural substrate 2-arachidonoylglycerol (2-AG) resulting in arachidonic acid, which can be followed by mass spectrometry. This assay is hereinafter abbreviated “2-AG assay”.
Compounds of formula (II) were profiled for MAGL inhibitory activity by determining the enzymatic activity by following the hydrolysis of the natural substrate 2-arachidonoylglycerol (2-AG) resulting in arachidonic acid, which can be followed by mass spectrometry. This assay is hereinafter abbreviated “2-AG assay”. The 2-AG assay was carried out in 384 well polypropylene assay plates. Compound dilutions were made in 100% DMSO in a polypropylene plate in 3-fold dilution steps to give a final concentration range in the assay from 12.5 μM to 0.8 pM. Compound dilutions were added to MAGL protein in assay buffer (50 mM TRIS, 1 mM EDTA, 0.01% (v/v) Tween-20, 2.5% (v/v) DMSO). After shaking, the plate was incubated for 15 min at RT. To start the reaction, 2-arachidonoylglycerol in assay buffer was added. The final concentrations in the assay was 50 pM for MAGL protein and […] 2-arachidonoylglyerol. After shaking and 30 min incubation at RT, the reaction was quenched by the addition of two assay volumes of acetonitrile containing 4 μM of d8-arachidonic acid. The amount of arachidonic acid formed was traced by an online SPE system (Agilent Rapidfire) coupled to a triple quadrupole mass spectrometer. A C18 SPE cartridge (Agilent G9205A) was used in an acetonitrile/water liquid setup. The mass spectrometer was operated in negative electrospray mode following the mass transitions 303.1→259.1 for arachidonic acid and 311.1→267.0 for d8-arachidonic acid. The activity of the compounds was calculated based on the ratio of intensities [arachidonic acid/d8-arachidonic acid].
In the case of `COc1cccc(C(=O)N2CCc3c(nn(C)c3-c3cc(Cl)cc(C4(S(C)(=O)=O)CC4)c3)[C@@H]2C)c1Cl` [Example 5, (2-Chloro-3-methoxy-phenyl)-[(7S)-3-[3-chloro-5-(1-methylsulfonylcyclopropyl)phenyl]-2,7-dimethyl-5,7-dihydro-4H-pyrazolo[3,4-c]pyridin-6-yl]methanone], the IC50 (in general, the concentration that gives 50% inhibition) is 59 nM.

Molecule `C[C@@H]1c2nn(C)c(-c3cc(F)cc(F)c3)c2CCN1C(=O)c1cc(F)cc(C2=CC(Cl)C(=O)N=C2)c1Cl` (stereo partly drawn) [Example 99, 3-chloro-5-[2-chloro-3-[(7R)-3-(3,5-difluorophenyl)-2,7-dimethyl-5,7-dihydro-4H-pyrazolo[3,4-c]pyridine-6-carbonyl]-5-fluoro-phenyl]-3H-pyridin-2-one] showed an IC50 of 767 nM.

The molecule `COc1cccc(C(=O)N2CCc3c(nn(C)c3-c3cc(Cl)cc(C4(C(N)=O)CC4)c3)[C@@H]2C)c1Cl` [Example 16, 1-[3-Chloro-5-[(7S)-6-(2-chloro-3-methoxy-benzoyl)-2,7-dimethyl-5,7-dihydro-4H-pyrazolo[3,4-c]pyridin-3-yl]phenyl]cyclopropanecarboxamide] returned an IC50 of 101 nM.

The molecule `CC1c2nn(C)c(-c3cc(F)cc(F)c3)c2CCN1C(=O)c1cc(F)cc(N2CC(S(C)(=O)=O)C2)c1Cl` (stereo not shown) [Example 22, [2-Chloro-5-fluoro-3-(3-methylsulfonylazetidin-1-yl)phenyl]-[3-(3,5-difluorophenyl)-2,7-dimethyl-5,7-dihydro-4H-pyrazolo[3,4-c]pyridin-6-yl]methanone] showed an IC50 of 76 nM.

`C[C@H]1c2nn(C)c(-c3cc(F)cc(F)c3)c2CCN1C(=O)c1ncn(-c2ccc[nH]c2=O)c1Cl` [Example 77, 3-[5-chloro-4-[(7S)-3-(3,5-difluorophenyl)-2,7-dimethyl-5,7-dihydro-4H-pyrazolo[3,4-c]pyridine-6-carbonyl]imidazol-1-yl]-1H-pyridin-2-one] returned an IC50 of 1460 nM.

Molecule `C[C@H]1c2nn(C)c(-c3cc(Cl)cc(C4(NS(C)(=O)=O)CC4)c3)c2CCN1C(=O)c1cc(F)cc(-c2cn[nH]c2)c1F` [Example 94, N-[1-[3-chloro-5-[(7S)-6-[2,5-difluoro-3-(1H-pyrazol-4-yl)benzoyl]-2,7-dimethyl-5,7-dihydro-4H-pyrazolo[3,4-c]pyridin-3-yl]phenyl]cyclopropyl]methanesulfonamide] registered an IC50 of 472 nM.

As for `C[C@@H]1c2nn(C)c(-c3cc(F)cc(F)c3)c2CCN1C(=O)c1cc(F)cc(CCc2c[nH]nn2)c1Cl` [Example 105, [2-chloro-5-fluoro-3-[2-(JH-triazol-4-yl)ethyl]phenyl]-[(7R)-3-(3,5-difluorophenyl)-2,7-dimethyl-5,7-dihydro-4H-pyrazolo[3,4-c]pyridin-6-yl]methanone], half-maximal inhibition (IC50) required 1.01 nM.

`C[C@H]1c2nn(C)c(-c3cc(Cl)cc(C4(S(C)(=O)=O)CC4)c3)c2CCN1C(=O)c1ncn(-c2ccc[nH]c2=O)n1` [Example 78, 3-[3-[(7S)-3-[3-chloro-5-(1-methylsulfonylcyclopropyl)phenyl]-2,7-dimethyl-5,7-dihydro-4H-pyrazolo[3,4-c]pyridine-6-carbonyl]-1,2,4-triazol-1-yl]-1H-pyridin-2-one] showed an IC50 of 275 nM. This IC50 is about 270-fold higher than that of the molecule before.

`COc1cccc(C(=O)N2CCc3c(nn(C)c3-c3cnc(C(F)(F)F)nc3)[C@@H]2C)c1Cl` [Example 9, (2-Chloro-3-methoxy-phenyl)-[(7S)-2,7-dimethyl-3-[2-(trifluoromethyl)pyrimidin-5-yl]-5,7-dihydro-4H-pyrazolo[3,4-c]pyridin-6-yl]methanone] had an IC50 of 311 nM.

In turn, `C[C@H]1c2nn(C)c(-c3cc(F)cc(F)c3)c2CCN1C(=O)c1ncnn1[C@H]1CCNC1` (single isomer, unassigned) [Example 54, [3-(3,5-Difluorophenyl)-2,7-dimethyl-5,7-dihydro-4H-pyrazolo[3,4-c]pyridin-6-yl]-(2-pyrrolidin-3-yl-1,2,4-triazol-3-yl)methanone; hydrochloride] yielded an IC50 of 714 nM. This IC50 is about 2.3-fold higher than that of the molecule before.
